26 compounds from patent US8901118B2, “Compounds and methods for kinase modulation, and indications therefor” (Plexxikon Inc., priority 2010, dated 2014) can be followed below.

The target in this test is Fms kinase (Homo sapiens, UniProt P07333). Briefly: Fms kinase biochemical activity assay (AlphaScreen, biotin-(E4Y)10 phosphorylation). The following applies: 100 μM ATP; read-out: Biochemical Inhibition IC50 Fms. In short, it runs like this:
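Fms kinase (1 ng/well) phosphorylating 30 nM biotin-(E4Y)10 with 100 μM ATP in 25 mM Hepes pH 7.5, MgCl2/MnCl2, 5% DMSO, 20 min at 30 °C. Phosphotyrosine detected by AlphaScreen streptavidin donor and PY20 acceptor beads; IC50 from signal versus compound concentration.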

Fms kinase, sequence (P07333 20-972): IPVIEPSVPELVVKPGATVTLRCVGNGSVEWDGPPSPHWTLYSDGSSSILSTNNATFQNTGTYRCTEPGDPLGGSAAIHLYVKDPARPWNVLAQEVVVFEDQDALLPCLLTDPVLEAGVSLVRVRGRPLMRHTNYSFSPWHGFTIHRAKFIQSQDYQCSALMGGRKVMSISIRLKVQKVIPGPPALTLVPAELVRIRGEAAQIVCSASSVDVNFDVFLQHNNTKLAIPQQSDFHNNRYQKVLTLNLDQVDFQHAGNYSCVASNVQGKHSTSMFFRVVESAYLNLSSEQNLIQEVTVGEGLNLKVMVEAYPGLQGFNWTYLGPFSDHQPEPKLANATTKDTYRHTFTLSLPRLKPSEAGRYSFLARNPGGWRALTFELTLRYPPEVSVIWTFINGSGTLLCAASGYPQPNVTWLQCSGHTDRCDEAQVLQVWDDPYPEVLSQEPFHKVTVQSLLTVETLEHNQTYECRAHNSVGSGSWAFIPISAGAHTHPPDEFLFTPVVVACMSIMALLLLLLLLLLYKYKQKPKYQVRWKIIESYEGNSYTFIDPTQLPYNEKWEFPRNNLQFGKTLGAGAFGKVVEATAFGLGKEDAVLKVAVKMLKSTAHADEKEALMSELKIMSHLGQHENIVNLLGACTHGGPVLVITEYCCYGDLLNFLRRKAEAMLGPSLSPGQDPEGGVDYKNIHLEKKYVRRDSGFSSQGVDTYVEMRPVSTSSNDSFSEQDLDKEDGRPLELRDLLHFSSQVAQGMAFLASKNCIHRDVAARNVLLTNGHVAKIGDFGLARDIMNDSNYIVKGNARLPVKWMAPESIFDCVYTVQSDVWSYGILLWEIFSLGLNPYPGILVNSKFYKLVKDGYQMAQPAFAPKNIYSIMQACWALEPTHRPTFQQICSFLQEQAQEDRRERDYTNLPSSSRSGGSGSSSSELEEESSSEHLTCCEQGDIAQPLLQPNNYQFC

`Clc1cnc2[nH]cc(Cc3cnc(NC4CCCCC4)nc3)c2c1` [Compound P-3001, [5-(5-chloro-1H-pyrrolo[2,3-b]pyridin-3-ylmethyl)-pyrimidin-2-yl]-cyclohexyl-amine]: the IC50 is below 100 nM.

On to `Clc1cnc2[nH]cc(Cc3cnc(NC4CCCC4)nc3)c2c1` [Compound P-3003, [5-(5-Chloro-1H-pyrrolo[2,3-b]pyridin-3-ylmethyl)-pyrimidin-2-yl]-cyclopentyl-amine], for which the IC50 was below 1000 nM.

For the compound `Clc1cnc2[nH]cc(Cc3cnc(NC4CC4)nc3)c2c1` [Compound P-3005, [5-(5-Chloro-1H-pyrrolo[2,3-b]pyridin-3-ylmethyl)-pyrimidin-2-yl]-cyclopropyl-amine], the IC50 is below 1000 nM.

For `Clc1cnc2[nH]cc(Cc3cnc(NC4CCCCCC4)nc3)c2c1` [Compound P-3006, [5-(5-Chloro-1H-pyrrolo[2,3-b]pyridin-3-ylmethyl)-pyrimidin-2-yl]-cycloheptyl-amine], the IC50 was below 10 nM.

Consider `COc1ccc(Nc2ncc(Cc3c[nH]c4ncc(C)cc34)cn2)cc1F` [Compound P-3023, (3-Fluoro-4-methoxy-phenyl)-[5-(5-methyl-1H-pyrrolo[2,3-b]pyridin-3-ylmethyl)-pyrimidin-2-yl]-amine], for which the IC50 was below 100 nM.

Turning to `Cc1cnc2[nH]cc(Cc3cnc(Nc4cc(-c5ccc(F)cc5)n[nH]4)nc3)c2c1` [Compound P-3028, [5-(4-Fluoro-phenyl)-2H-pyrazol-3-yl]-[5-(5-methyl-1H-pyrrolo[2,3-b]pyridin-3-ylmethyl)-pyrimidin-2-yl]-amine], the IC50 is above 1000 nM.

Take `Cc1cnc2[nH]cc(Cc3cnc(Nc4cc(C(C)(C)C)n[nH]4)nc3)c2c1` [Compound P-3029, (5-tert-Butyl-2H-pyrazol-3-yl)-[5-(5-methyl-1H-pyrrolo[2,3-b]pyridin-3-ylmethyl)-pyrimidin-2-yl]-amine]: the IC50 is below 100 nM.

Take `Cc1cnc2[nH]cc(Cc3cnc(Nc4ccc(C(C)(C)C)cc4)nc3)c2c1` [Compound P-3030, (4-tert-Butyl-phenyl)-[5-(5-methyl-1H-pyrrolo[2,3-b]pyridin-3-ylmethyl)-pyrimidin-2-yl]-amine amine]: the IC50 is below 100 nM.

Take `Cc1cnc2[nH]cc(Cc3cnc(Nc4ccc(C(O)(C(F)(F)F)C(F)(F)F)cc4)nc3)c2c1` [Compound P-3031, 1,1,1,3,3,3-Hexafluoro-2-{4-[5-(5-methyl-1H-pyrrolo[2,3-b]pyridin-3-ylmethyl)-pyrimidin-2-ylamino]-phenyl}-propan-2-ol]: the IC50 was below 1000 nM.

Turning to `Cc1cnc2[nH]cc(Cc3cnc(Nc4cc(C5CC5)n[nH]4)nc3)c2c1` [Compound P-3032, (5-Cyclopropyl-2H-pyrazol-3-yl)-[5-(5-methyl-1H-pyrrolo[2,3-b]pyridin-3-ylmethyl)-pyrimidin-2-yl]-amine], the IC50 is above 1000 nM.

On to `CSc1ccc(Nc2ncc(Cc3c[nH]c4ncc(C)cc34)cn2)cc1` [Compound P-3033, [5-(5-Methyl-1H-pyrrolo[2,3-b]pyridin-3-ylmethyl)-pyrimidin-2-yl]-(4-methylsulfanyl-phenyl)-amine], for which the IC50 was below 100 nM.

As for `Cc1cnc2[nH]cc(Cc3cnc(Nc4ccc(S(C)(=O)=O)cc4)nc3)c2c1` [Compound P-3034, (4-Methanesulfonyl-phenyl)-[5-(5-methyl-1H-pyrrolo[2,3-b]pyridin-3-ylmethyl)-pyrimidin-2-yl]-amine], the IC50 is below 100 nM.

As to `Cc1cnc2[nH]cc(Cc3cnc(Nc4cc(C(F)(F)F)n[nH]4)nc3)c2c1` [Compound P-3037, [5-(5-Methyl-1H-pyrrolo[2,3-b]pyridin-3-ylmethyl)-pyrimidin-2-yl]-(5-trifluoromethyl-2H-pyrazol-3-yl)-amine], the IC50 is above 1000 nM.

Turning to `Cc1cnc2[nH]cc(Cc3cnc(Nc4cc(OC(C)C)n[nH]4)nc3)c2c1` [Compound P-3038, (5-Isopropoxy-2H-pyrazol-3-yl)-[5-(5-methyl-1H-pyrrolo[2,3-b]pyridin-3-ylmethyl)-pyrimidin-2-yl]-amine], the half-inhibitory concentration (IC50) was below 1000 nM.

Turning to `CCc1ccc(Nc2ccc(Cc3c[nH]c4ncc(C)cc34)c(F)n2)cn1` [Compound P-3048, (6-Ethyl-pyridin-3-yl)-[6-fluoro-5-(5-methyl-1H-pyrrolo[2,3-b]pyridin-3-ylmethyl)-pyridin-2-yl]-amine], the IC50 is below 10 nM.

As for `CCc1ccc(Nc2ccc(C(=O)c3c[nH]c4ncc(C)cc34)c(F)n2)cn1` [Compound P-3049, [6-(6-Ethyl-pyridin-3-ylamino)-2-fluoro-pyridin-3-yl]-(5-methyl-1H-pyrrolo[2,3-b]pyridin-3-yl)-methanone], the IC50 was below 10 nM.

Consider `Cc1cnc2[nH]cc(Cc3ccc(Nc4ccc(C5CC5)nc4)nc3F)c2c1` [Compound P-3050, (6-Cyclopropyl-pyridin-3-yl)-[6-fluoro-5-(5-methyl-1H-pyrrolo[2,3-b]pyridin-3-ylmethyl)-pyridin-2-yl]-amine], for which the IC50 is below 100 nM.

With `Cc1cnc2[nH]cc(C(=O)c3ccc(Nc4ccc(C5CC5)nc4)nc3F)c2c1` [Compound P-3051, [6-(6-Cyclopropyl-pyridin-3-ylamino)-2-fluoro-pyridin-3-yl]-(5-methyl-1H-pyrrolo[2,3-b]pyridin-3-yl)-methanone], the IC50 was below 10 nM.

On to `O=C(c1ccc(Nc2ccc(C3CC3)nc2)nc1F)c1c[nH]c2ncccc12` [Compound P-3052, [6-(6-Cyclopropyl-pyridin-3-ylamino)-2-fluoro-pyridin-3-yl]-(1H-pyrrolo[2,3-b]pyridin-3-yl)-methanone], for which the IC50 was below 100 nM.

On to `Fc1nc(Nc2ccc(C3CC3)nc2)ccc1Cc1c[nH]c2ncccc12` [Compound P-3053, (6-Cyclopropyl-pyridin-3-yl)-[6-fluoro-5-(1H-pyrrolo[2,3-b]pyridin-3-ylmethyl)-pyridin-2-yl]-amine], for which the IC50 was below 10 nM.

For the compound `COc1ccc(Nc2ccc(Cc3c[nH]c4ncnc(C)c34)c(F)n2)cn1` [Compound P-4002, [6-Fluoro-5-(4-methyl-7H-pyrrolo[2,3-d]pyrimidin-5-ylmethyl)-pyridin-2-yl]-(6-methoxy-pyridin-3-yl)-amine], the IC50 is below 100 nM.

For `Cc1cncc(Nc2ccc(Cc3c[nH]c4ncnc(C5CC5)c34)c(F)n2)c1` [Compound P-4038, [5-(4-Cyclopropyl-7H-pyrrolo[2,3-d]pyrimidin-5-ylmethyl)-6-fluoro-pyridin-2-yl]-(5-methyl-pyridin-3-yl)-amine], the IC50 was below 100 nM.

For the compound `Cc1cncc(Nc2ccc(C(=O)c3c[nH]c4ncnc(C5CC5)c34)c(F)n2)c1` [Compound P-4039, (4-Cyclopropyl-7H-pyrrolo[2,3-d]pyrimidin-5-yl)-[2-fluoro-6-(5-methyl-pyridin-3-ylamino)-pyridin-3-yl]-methanone], the IC50 was below 1000 nM.

`Fc1nc(NC2CCC(F)(F)CC2)ccc1Cc1c[nH]c2ncnc(NCC(F)(F)F)c12` [Compound P-4128, 5-[[6-[(4,4-difluorocyclohexyl)amino]-2-fluoro-3-pyridyl]methyl]-N-(2,2,2-trifluoroethyl)-7H-pyrrolo[2,3-d]pyrimidin-4-amine]: the IC50 was below 100 nM.

For `Fc1nc(NC2CCC(F)(F)CC2)ccc1Cc1c[nH]c2ncnc(NC3CC3)c12` [Compound P-4129, N-cyclopropyl-5-[[6-[(4,4-difluorocyclohexyl)amino]-2-fluoro-3-pyridyl]methyl]-7H-pyrrolo[2,3-d]pyrimidin-4-amine], the IC50 was below 100 nM.

Turning to `Fc1nc(Nc2ccc(C3CC3)nc2)ccc1Cc1c[nH]c2ncnc(NCC(F)(F)F)c12` [Compound P-4130, 5-[[6-[(6-cyclopropyl-3-pyridyl)amino]-2-fluoro-3-pyridyl]methyl]-N-(2,2,2-trifluoroethyl)-7H-pyrrolo[2,3-d]pyrimidin-4-amine], the IC50 was below 10 nM.
